Data as given in the supplement of paper PMC11127212.

How the values were obtained:
[1] = retention time on BEH HILIC column (20 min gradient, 0.4 mL/min); higher = later elution; details: LC: HILIC
Procedure: (§1)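 Reference standards (20-100 uM) were separated by HILIC UPLC (BEH HILIC, 45 °C): acidic pH 3.0 ammonium formate/formic acid for ESI+ and basic pH 9.0 ammonium acetate/ammonia for ESI-. They were analysed on a Synapt G2-Si traveling-wave IMS-QTOF with nitrogen drift gas (WH 30 V; WV 800 m/s in ESI+ and 1000 m/s in ESI-).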

[2] = collision cross section (TWIMS, N2) of ion [M-H]-; higher = larger gas-phase ion cross section; details: ionization: ESI negative; LC: HILIC, pH 9.0 ammonium acetate
Procedure: as §1

[3] = collision cross section (TWIMS, N2) of ion [M+H]+; higher = larger gas-phase ion cross section; details: ionization: ESI positive; LC: HILIC, pH 3.0 ammonium formate
Procedure: as §1

[4] = ionization: ESI negative, pH 9.0 ammonium acetate
[5] = ionization: ESI positive, pH 3.0 ammonium formate

Row | Compound | retention time on BEH HILIC column [1, 4] | collision cross section [2] | retention time on BEH HILIC column [1, 5] | collision cross section [3]
1 | O=C(O)C(O)CCO (stereo not drawn) [2,4-dihydroxybutyric acid] | 4.91 min | 119.85 Å² | – | –
2 | Nc1ccccc1C(=O)O [2-aminobenzoic acid] | 0.97 min | 126.13 Å² | 0.82 min | 124.05 Å²
3 | CC[C@H](N)C(=O)O [2-aminobutyric acid] | 7.05 min | 121.74 Å² | – | –
4 | CCC(CO)C(=O)O (stereo not drawn) [2-ethylhydracrylic acid] | 1.03 min | 123.21 Å² | – | –
5 | CCC(C)(O)C(=O)O (stereo not drawn) [2-hydroxy-2-methyl butyric acid] | 1.55 min | 124.78 Å² | – | –
6 | CC[C@H](O)C(=O)O [2-hydroxybutyric acid] | 1.95 min | 119.98 Å² | – | –
7 | CCCCC(C)C(=O)O (stereo not drawn) [2-methylhexanoic acid] | 0.8 min | 134.11 Å² | – | –
8 | CC(O)C(C)C(=O)O (stereo not drawn) [3-hydroxy-2-methylbutanoic acid] | 1.1 min | 124.78 Å² | – | –
9 | C[C@@H](O)CC(=O)O [3-hydroxybutyric acid] | 0.97 min | 107.41 Å² | – | –
10 | CC[C@H](C)C(=O)C(=O)O [3-methyl-2-oxopentanoic acid] | 1.93 min | 126.71 Å² | – | –
11 | CCC(C)CCC(=O)O (stereo not drawn) [4-methylhexanoic acid] | 0.88 min | 134.11 Å² | 0.99 min | 137.57 Å²
12 | Nc1ncnc2c1ncn2[C@@H]1O[C@H](COP(=O)(O)OP(=O)(O)O)[C@@H](O)[C@H]1O [ADP] | 12.6 min | 183.67 Å² | – | –
13 | Nc1ncnc2c1ncn2[C@@H]1O[C@H](COP(=O)(O)O)[C@@H](O)[C@H]1O [AMP] | 12 min | 175.53 Å² | 9.15 min | 167.89 Å²
14 | Nc1ncnc2c1ncn2[C@@H]1O[C@H](COP(=O)(O)OP(=O)(O)OP(=O)(O)O)[C@@H](O)[C@H]1O [ATP] | 12.3 min | 190.77 Å² | – | –
15 | CC(=O)SCCNC(=O)CCNC(=O)[C@H](O)C(C)(C)COP(=O)(O)OP(=O)(O)OC[C@H]1O[C@@H](n2cnc3c(N)ncnc32)[C@H](O)[C@@H]1OP(=O)(O)O [Acetyl-CoA] | 11.8 min | 256.25 Å² | 12 min | 248.16 Å²
16 | Nc1ncnc2c1ncn2[C@@H]1O[C@H](CO)[C@@H](O)[C@H]1O [Adenosine] | 2.36 min | 155.95 Å² | 2.24 min | 155.89 Å²
17 | CCCCC/C=C\C/C=C\C/C=C\C/C=C\CCCC(=O)O [Arachidonic acid] | 0.72 min | 186.98 Å² | 0.77 min | 178.98 Å²
18 | O=C1O[C@H]([C@@H](O)CO)C(O)=C1O [Ascorbic acid] | 1.17 min | 122.95 Å² | 0.72 min | 134.39 Å²
19 | O=C(O)CCCC[C@@H]1SC[C@@H]2NC(=O)N[C@@H]21 [Biotin] | 1.78 min | 153.03 Å² | 1.88 min | 148.62 Å²

Row | Compound | retention time on BEH HILIC column [1, 4] | collision cross section [2] | retention time on BEH HILIC column [1, 5] | collision cross section [3]
20 | CCCC(=O)O [Butyric acid] | 3.72 min | 122.31 Å² | – | –
21 | CCCCCCCC(=O)O [Caprylic acid] | 0.77 min | 141.36 Å² | – | –
22 | Nc1c(C(=O)O)c2nc3c(C(=O)O)cccc3oc-2cc1=O [Cinnavalininate] | 2.92 min | 156.31 Å² | 2.66 min | 156.61 Å²
23 | O=C(O)CC(O)(CC(=O)O)C(=O)O [Citric acid] | 11.1 min | 128.76 Å² | – | –
24 | NC(=O)NCCC[C@H](N)C(=O)O [Citrulline] | 9.07 min | 135.18 Å² | 8.89 min | 137.33 Å²
25 | O=P(O)(O)OC[C@H]1O[C@H](O)[C@H](O)[C@@H]1O [D-ribose 5-phosphate] | 9.22 min | 139.6 Å² | – | –
26 | O=P(O)(O)OC[C@H]1O[C@@](O)(CO)[C@@H](O)[C@H](O)[C@@H]1O [D-sedoheptulose 7-phosphate] | 9.82 min | 150.55 Å² | – | –
27 | NCCc1ccc(O)c(O)c1 [Dopamine] | 4.35 min | 130.85 Å² | 4.6 min | 139.55 Å²
28 | CC/C=C\C/C=C\C/C=C\C/C=C\C/C=C\CCCC(=O)O [Eicosapentaenoic acid] | 0.72 min | 190.11 Å² | 0.75 min | 177.23 Å²
29 | Cc1cc2nc3c(=O)[nH]c(=O)nc-3n(C[C@H](O)[C@H](O)[C@H](O)COP(=O)(O)OP(=O)(O)OC[C@H]3O[C@@H](n4cnc5c(N)ncnc54)[C@H](O)[C@@H]3O)c2cc1C [FAD] | 10.6 min | 243.71 Å² | 10.5 min | 250.07 Å²
30 | O=P(O)(O)OC[C@H]1O[C@](O)(COP(=O)(O)O)[C@@H](O)[C@@H]1O [Fructose 1,6-bisphosphate] | 12.9 min | 159.01 Å² | – | –
31 | O=P(O)(O)O[C@H]1O[C@H](CO)[C@H](O)[C@H](O)[C@H]1O [Galactose 1-phosphate] | 11.8 min | 147.62 Å² | – | –
32 | N[C@@H]1[C@@H](O)[C@H](O)[C@@H](COP(=O)(O)O)O[C@@H]1O [Glucosamine 6-phosphate] | 12.3 min | 150.31 Å² | – | –
33 | O=P(O)(O)O[C@H]1O[C@H](CO)[C@@H](O)[C@H](O)[C@H]1O [Glucose 1-phosphate] | 9.95 min | 147.62 Å² | – | –
34 | CC(C)C(=O)O [Isobutyric acid] | 3.29 min | 118.84 Å² | – | –
35 | CC(C)CC(=O)O [Isovaleric acid] | 0.9 min | 123.48 Å² | – | –
36 | CC(C)CC(=O)C(=O)O [Ketoleucine] | 1.93 min | 128.21 Å² | – | –
37 | C[C@H](N)C(=O)O [L-alanine] | 7.42 min | 117.06 Å² | – | –
38 | NC(=O)C[C@H](N)C(=O)O [L-asparagine] | 8.32 min | 123.48 Å² | – | –

Row | Compound | retention time on BEH HILIC column [1, 4] | collision cross section [2] | retention time on BEH HILIC column [1, 5] | collision cross section [3]
39 | N[C@@H](CC(=O)O)C(=O)O [L-aspartic acid] | 11.5 min | 120.3 Å² | – | –
40 | C[N+](C)(C)C[C@H](O)CC(=O)O [L-carnitine] | – | – | 8.64 min | 137.38 Å²
41 | N[C@@H](CCC(=O)O)C(=O)O [L-glutamic acid] | 8.21 min | 125.39 Å² | – | –
42 | N[C@@H](CO)C(=O)O [L-serine] | 7.75 min | 118.21 Å² | – | –
43 | C[C@@H](O)[C@H](N)C(=O)O [L-threonine] | 7.5 min | 121.54 Å² | – | –
44 | C[C@H](O)C(=O)O [Lactic acid] | 2.86 min | 116.91 Å² | – | –
45 | O=C(O)C[C@H](O)C(=O)O [Malic acid] | 13 min | 118.53 Å² | – | –
46 | C[C@@H](CC(=O)O)C(=O)O [Methylsuccinic acid] | 1.28 min | 121.94 Å² | – | –
47 | CCCCCCCCCCCCCC(=O)O [Myristic acid] | 0.73 min | 168.91 Å² | – | –
48 | NC(=O)c1cccnc1 [Niacinamide] | – | – | 1.21 min | 123.01 Å²
49 | NCCc1c[nH]c2ccc(O)cc12 [Serotonin] | 3.73 min | 137.88 Å² | – | –
50 | NCCCCNCCCN [Spermidine] | – | – | 12.7 min | 135.15 Å²
51 | NCCCNCCCCNCCCN [Spermine] | – | – | 13.9 min | 150.86 Å²
52 | O=C(O)CCC(=O)O [Succinic acid] | 1.5 min | 118.44 Å² | – | –
53 | CC(=O)N[C@H]1[C@@H](OP(=O)(O)OP(=O)(O)OC[C@H]2O[C@@H](n3ccc(=O)[nH]c3=O)[C@H](O)[C@@H]2O)O[C@H](CO)[C@@H](O)[C@@H]1O [UDPAG] | 9.42 min | 219.62 Å² | – | –
54 | O=C(O)[C@H]1O[C@H](OP(=O)(O)OP(=O)(O)OC[C@H]2O[C@@H](n3ccc(=O)[nH]c3=O)[C@H](O)[C@@H]2O)[C@H](O)[C@@H](O)[C@@H]1O [UDPGA] | 10.4 min | 209.99 Å² | – | –
55 | CCCCC(=O)O [Valeric acid] | 3.22 min | 123.48 Å² | – | –
56 | O=C(O)CCC(=O)C(=O)O [a-ketoglutaric acid] | 5.51 min | 122.3 Å² | – | –
